# Laboratory results: PMC12006963, “Application of Deuterium in an M1 Positive Allosteric Modulator Back-Up Program: The Discovery of VU6045422” (ACS Chemical Neuroscience, 2025)
# Substitutions are numbered along the chain they refer to. Read-outs that look alike come from different tables or passages of the source.
# What was measured:
# M1 = molecular target: T1, M1 (Homo sapiens, UniProt P11229); assay: Calcium mobilization, human M1 CHO cells (agonist and PAM modes); format: cell-based; details: for M1 agonism: in words
# T1 construct: expressed in transfected cells
# T1 sequence (P11229 1-460): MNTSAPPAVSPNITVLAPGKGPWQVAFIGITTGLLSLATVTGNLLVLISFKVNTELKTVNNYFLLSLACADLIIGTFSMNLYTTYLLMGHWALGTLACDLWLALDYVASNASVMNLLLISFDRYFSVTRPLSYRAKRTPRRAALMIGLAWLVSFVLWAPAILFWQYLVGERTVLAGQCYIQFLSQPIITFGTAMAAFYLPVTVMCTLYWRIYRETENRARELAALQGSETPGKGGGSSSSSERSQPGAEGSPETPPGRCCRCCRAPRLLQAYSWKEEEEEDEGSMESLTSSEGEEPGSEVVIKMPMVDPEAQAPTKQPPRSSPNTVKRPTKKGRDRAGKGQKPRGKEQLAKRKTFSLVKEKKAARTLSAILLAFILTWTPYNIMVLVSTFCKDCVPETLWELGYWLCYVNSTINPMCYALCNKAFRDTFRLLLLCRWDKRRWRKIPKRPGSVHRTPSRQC
# rM1 = molecular target: T2, rM1 (Rattus norvegicus, UniProt P08482); assay: Calcium mobilization, rat M1 (agonist and PAM modes); format: cell-based
# T2 sequence (P08482 1-460): T1 sequence (P11229 1-460) with A5V, T254S, P309S, R320K, A337G, I413V
# [1] = Predicted hepatic clearance, hepatic microsomes (cyno); format: in vitro ADME
# CYP 2D6 = CYP 2D6 (Homo sapiens, UniProt P10635); assay: CYP inhibition 2D6; format: in vitro ADME
# CYP 2D6, sequence (P10635 whole entry): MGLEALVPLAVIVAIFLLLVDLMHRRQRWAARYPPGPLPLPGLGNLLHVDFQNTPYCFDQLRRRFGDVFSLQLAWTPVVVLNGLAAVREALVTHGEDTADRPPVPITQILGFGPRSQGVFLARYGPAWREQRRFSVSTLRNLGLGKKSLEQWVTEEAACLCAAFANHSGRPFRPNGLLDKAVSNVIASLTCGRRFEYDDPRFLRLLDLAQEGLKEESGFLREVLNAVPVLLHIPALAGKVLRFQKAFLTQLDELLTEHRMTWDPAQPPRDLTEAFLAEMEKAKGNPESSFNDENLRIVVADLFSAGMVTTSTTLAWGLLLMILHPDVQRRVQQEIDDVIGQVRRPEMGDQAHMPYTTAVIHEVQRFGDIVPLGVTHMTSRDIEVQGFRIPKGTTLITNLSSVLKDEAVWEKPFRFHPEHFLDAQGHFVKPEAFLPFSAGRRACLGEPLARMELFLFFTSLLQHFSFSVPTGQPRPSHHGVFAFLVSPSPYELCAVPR
# Description: (§1) Table 1 Pharmacology and In Vitro DMPK Profiles of M1 PAMs 1, 3, and 5 | column: 1; 3; 5
# CYP 3A4 = CYP 3A4 (Homo sapiens, UniProt P08684); assay: CYP inhibition 3A4; format: in vitro ADME
# CYP 3A4, sequence (P08684 whole entry): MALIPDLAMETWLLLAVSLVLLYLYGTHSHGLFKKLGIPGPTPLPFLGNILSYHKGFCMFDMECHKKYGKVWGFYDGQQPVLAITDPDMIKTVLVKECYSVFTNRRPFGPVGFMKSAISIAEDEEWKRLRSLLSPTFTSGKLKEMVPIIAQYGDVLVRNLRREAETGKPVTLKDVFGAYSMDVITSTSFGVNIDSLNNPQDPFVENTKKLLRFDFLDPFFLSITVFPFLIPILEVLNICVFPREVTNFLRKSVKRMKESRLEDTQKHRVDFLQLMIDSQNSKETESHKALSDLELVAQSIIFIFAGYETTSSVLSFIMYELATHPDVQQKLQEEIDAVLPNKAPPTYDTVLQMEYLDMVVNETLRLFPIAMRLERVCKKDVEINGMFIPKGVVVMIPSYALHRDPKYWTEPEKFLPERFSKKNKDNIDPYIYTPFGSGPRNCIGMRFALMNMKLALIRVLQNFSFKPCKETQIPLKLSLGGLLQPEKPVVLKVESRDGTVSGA
# Description: as §1
# [2] = Hepatocyte metabolite identification (rat); format: in vitro ADME; details: rat hepatocytes, 4 h incubation
# Experimental: Prior to full characterization of deuterated analogues 3 and 5, they were incubated in rat, dog, monkey, and human hepatocytes, along with 1, to determine the amount of parent remaining, as well as the degree of undesired oxidative metabolites 2, 4, and 6 (Figure 2). […] For the gem-dideutero congener 3, metabolic stability was improved in vitro. […] Thus, in hepatocytes in vitro, the kinetic isotope effect engendered greater metabolic stability of the labile hot spot on the lactam. It remained to be seen if this effect would translate in vivo, but we first had to assess the impact of the deuterated analogues on molecular pharmacology, in vitro DMPK, standard low-dose in vivo DMPK and, if warranted, in vivo efficacy in a rat novel object recognition (NOR) behavioral assay.
# [3] = In vivo IV/PO pharmacokinetics, dog; design: species or system dog (beagle or mongrel); details: for clearance / Vd / half-life: beagle or mongrel, plasma, 1 mg/kg; for clearance: dose iv/po mg/kg: 1 1/3, 5 1/5, read-out: CLp; for Vd: dose iv/po mg/kg: 1 1/3, 5 1/5, read-out: Vss; for half-life: dose iv/po mg/kg: 1 1/3, 5 1/5, read-out: elimination t1/2 (converted); for F (%) po: dose iv/po mg/kg: 1 1/3, 5 1/5
# [4] = In vivo IV/PO pharmacokinetics, NHP; details: NHP (cyno), dose iv/po mg/kg: 1 1/3, 5 1/5; for clearance / Vd / half-life: cynomolgus monkey, plasma, 1 mg/kg; for clearance: read-out: CLp; for Vd: read-out: Vss; for half-life: read-out: elimination t1/2 (converted)
# rM2-5 = assay: Muscarinic selectivity, rat M2-5; format: cell-based
# recognition memory = assay: Novel object recognition (NOR) test; format: in vivo, rat; details: PO; for minimum effective dose (MED) in NOR: male Sprague-Dawley rats, 3 given 2 h, 5 given 1 h before exposure, memory assessed 24 h later; for effect on recognition memory in NOR: rats, 3 at 1, 3, 10 mg/kg, 5 at 0.3, 1, 3 mg/kg
# Experimental: Figure 4 Novel object recognition (NOR) test in rats with M1 PAMs 3 and 5. […] Minimum effective dose (MED) is 10 mg/kg. […] Minimum effective dose (MED) is 1 mg/kg. N = 13–18/group of male Sprague-Dawley rats. Analysis of variance (ANOVA) *p < 0.05; **p < 0.01 Dunnett posthoc test.
# Rats were habituated for 10 min for 2 consecutive days in an empty novel object recognition (NOR) arena consisting of dark-colored plexiglass box (40 × 64 × 33 cm3). On day 3 rats were administered vehicle, M1 PAM 3 (1-10 mg/kg, p.o.., 10 mL/kg, n = 13-18), or M 1 PAM 5 (0.3-3 mg/kg, p.o.., 10 mL/kg, n = 16-18) and returned to their home cage for 60 min (M 1 PAM 5) or 2 hr (M1 PAM 3. Rats were then placed in the NOR arena containing two identical objects for 10 min. Following the exposure period, rats were placed back into their home cages for 24 h. The rats were then returned to the arena in which one of the previously exposed (familiar) objects was replaced by a novel object and were video recorded for 5 min while they explored the two objects.
# Time spent exploring each object was scored by an observer blinded to the experimental conditions and the recognition index was calculated as [(time spent exploring novel object) – (time spent exploring familiar object)]/total time exploring objects. […]
# C18, 2.1 x 30 mm, 2.6 um. Gradient conditions: 7% to 95% CH3CN in H2O (0.1% TFA) over 1.6
# [5] = PAM mode, read-out: hM1 PAM EC50
# [6] = agonist mode, read-out: hM1 Agonist EC50
# [7] = PAM mode, read-out: rM1 PAM EC50
# [8] = agonist mode, read-out: rM1 Agonist EC50
SMILES,hM1 PAM AChmax (%) (M1),EC50 (M1; [5]) [µM],EC50 (M1; [6]) [µM],hM1 PAM AChmax (%) (pEC50 line) (M1; mean ± spread),rM1 PAM AChmax (%) (rM1),EC50 (rM1; [7]) [µM],EC50 (rM1; [8]) [µM],Predicted CLhep [1] [mL/min/kg],IC50 (CYP 2D6) [µM],IC50 (CYP 3A4) [µM],"% Total Peak Area, parent remaining [2] [%]",clearance [3] [mL/min/kg],Vd [3] [L/kg],half-life [3] [h],F (%) po [3] [%],F (%) po [4] [%],clearance [4] [mL/min/kg],Vd [4] [L/kg],half-life [4] [h],M1 agonism (M1),further results
Cn1cc2c(-c3cc(F)c(CN4Cc5ncccc5C4=O)c(F)c3)cccc2n1 [compound 1],80,0.492,> 30,71±9.9,79,0.213,> 30,5.6,> 30,> 30,76.3,4,2.1,7.5,100,59,3.3,0.9,4.3,–,–
[2H]C1([2H])c2ncccc2C(=O)N1Cc1c(F)cc(-c2cccc3nn(C)cc23)cc1F [compound 3],81,0.624,> 30,78±2.2,85,0.361,> 30,27.4,> 30,> 30,87.0,–,–,–,–,–,–,–,–,minimal M1 agonism,EC50 (rM2-5): > 30 µM; minimum effective dose (MED) in NOR (recognition memory): 10 mg/kg; effect on recognition memory in NOR (recognition memory): dose-dependently enhanced the recognition memory
[2H]C1([2H])c2ncccc2C(=O)N1Cc1c(F)cc(-c2cccc3nn(C([2H])([2H])[2H])cc23)cc1F [compound 5],80,0.192,> 30,82±1.8,82,0.249,> 30,27.5,> 30,28.6,87.7,2.6,2,10,85,64,4,1.1,4.6,minimal M1 agonism,"EC50 (M1; mean ± spread, n in cell, read-out: hM1 PAM pEC50 (converted)): 0.182 µM; EC50 (rM2-5): > 30 µM; minimum effective dose (MED) in NOR (recognition memory): 1 mg/kg; effect on recognition memory in NOR (recognition memory): dose-dependently enhanced recognition memory"
